The nature of series [1]: Inhibition of Trichoderma chitinase T1 using [4MU-(GlcNAc)3] as substrate.
The nature of series [2]: Stability of the compound in 0.05 M HCl for 30 mins at room temperature. Type of series: physicochemical. The conditions noted are these: buffer, 0.5 h.
A short description of series [3]: Stability of the compound in 0.05 M NaOH for 30 mins at room temperature. The conditions noted are these: 0.5 h. Type of series: physicochemical.
The test system of series [4] is Alpha-1-antiproteinase (Mus musculus). Briefly: Binding affinity to alpha-1 antitrypsin in IL-13-induced asthmatic A/J mouse BAL fluid after 1 hrs by photoaffinity labeling study.
Series [5] has as its target Chitinase-like protein 3 (Mus musculus) (UniProt O35744). Briefly: Binding affinity to Ym1 in IL-13-induced asthmatic A/J mouse BAL fluid after 1 hrs by photoaffinity labeling study.
Series [6] has the same target. Briefly: Binding affinity to recombinant His-tagged mouse Ym1 expressed in Escherichia coli after 1 hrs by photoaffinity labeling study.

The source made the active and inactive calls. The calls are words filed in the database; no cut-off is given here.

One may read the IC50 as the concentration at which inhibition is half-maximal. Lower therefore signals higher potency.

Chitinase-like protein 3 (Mus musculus), sequence (O35744 whole entry): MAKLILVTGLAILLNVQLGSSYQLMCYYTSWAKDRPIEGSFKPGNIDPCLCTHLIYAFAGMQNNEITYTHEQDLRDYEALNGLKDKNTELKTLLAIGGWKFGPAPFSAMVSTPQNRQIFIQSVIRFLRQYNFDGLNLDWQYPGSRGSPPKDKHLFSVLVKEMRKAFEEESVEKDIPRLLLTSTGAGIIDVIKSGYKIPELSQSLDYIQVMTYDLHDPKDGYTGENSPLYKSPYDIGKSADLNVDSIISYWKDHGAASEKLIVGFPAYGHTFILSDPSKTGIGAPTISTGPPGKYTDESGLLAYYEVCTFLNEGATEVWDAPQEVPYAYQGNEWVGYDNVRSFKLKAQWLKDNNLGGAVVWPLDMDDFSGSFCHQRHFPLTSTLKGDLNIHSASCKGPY

For the molecule `CNC1=N[C@@H]2[C@@H](O)[C@H](O[C@@H]3O[C@H](CO)[C@@H](O[C@@H]4O[C@H](CO)[C@@H](O)[C@@H](O)[C@H]4NC(C)=O)[C@@H](O)[C@H]3N)[C@@H](CO)[C@@H]2O1`, 308 µM corresponded to half-maximal inhibition in series [1] (IC50).

For `CC(=O)N[C@H]1[C@H](O[C@H]2[C@H](O)[C@H]3N=C(N(C)C)O[C@H]3[C@@H]2CO)O[C@H](CO)[C@@H](O[C@@H]2O[C@H](CO)[C@@H](O)[C@@H](O)[C@H]2NC(=O)CCSSCCNC(=O)CCCCC2SCC3NC(=O)NC32)[C@H]1O` (some centres not stated), the Stability result in series [2] and in series [3] was “Stable” in each case. The molecule also yielded an IC50 in series [1] of 3.6 µM.

As to `CC(=O)N[C@H]1[C@H](O[C@H]2[C@H](O)[C@H]3N=C(N(C)C)O[C@H]3[C@@H]2CO)O[C@H](CO)[C@@H](O[C@@H]2O[C@H](CO)[C@@H](O)[C@@H](O)[C@H]2NC(=O)CCSSCCNC(=O)C(CCCCNC(=O)CCCCC2SCC3NC(=O)NC32)NC(=O)c2ccc(N=[NH+][NH-])cc2)[C@H]1O` (some centres not stated), the outcome in series [4], in series [5] and in series [6] was Active. The same molecule registered an IC50 in series [1] of 10.7 µM.

`CC(=O)N[C@H]1[C@H](O[C@H]2[C@@H](O)[C@@H](NC(C)=O)[C@H](O[C@H]3[C@H](O)[C@H]4N=C(N(C)C)O[C@H]4[C@@H]3CO)O[C@@H]2CO)O[C@H](CO)[C@@H](O)[C@H]1O` [ALLOSAMIDIN] had an IC50 in series [1] of 5.4 µM.

In series [1], `CNC1=N[C@@H]2[C@@H](O)[C@H](O[C@@H]3O[C@H](CO)[C@@H](O[C@@H]4O[C@H](CO)[C@@H](O)[C@@H](O)[C@H]4NC(C)=O)[C@@H](O)[C@H]3NC(=O)CCSSCCNC(=O)C(CCCCNC(=O)CCCCC3SCC4NC(=O)NC43)NC(=O)c3ccc(N=[NH+][NH-])cc3)[C@@H](CO)[C@@H]2O1` (some centres not stated) returned a concentration for half-maximal inhibition (IC50) of 155 µM.

For the molecule `CC(=O)N[C@H]1[C@H](O[C@H]2[C@H](O)[C@H]3N=C(N(C)C)O[C@H]3[C@@H]2CO)O[C@H](CO)[C@@H](O[C@@H]2O[C@H](CO)[C@@H](O)[C@@H](O)[C@H]2N)[C@H]1O`, half-maximal inhibition in series [1] (IC50) was put at 34.3 µM.

`CC(=O)N[C@H]1[C@H](O[C@H]2[C@@H](O)[C@@H](NC(=O)CCSSCCNC(=O)CCCCC3SCC4NC(=O)NC43)[C@H](O[C@H]3[C@H](O)[C@H]4N=C(N(C)C)O[C@H]4[C@@H]3CO)O[C@@H]2CO)O[C@H](CO)[C@@H](O)[C@H]1O` (some centres not stated) returned an IC50 in series [1] of 50.3 µM.

On to `CNC1=N[C@@H]2[C@@H](O)[C@H](O[C@@H]3O[C@H](CO)[C@@H](O[C@@H]4O[C@H](CO)[C@@H](O)[C@@H](O)[C@H]4NC(C)=O)[C@@H](O)[C@H]3NC(=O)CCSSCCNC(=O)CCCCC3SCC4NC(=O)NC43)[C@@H](CO)[C@@H]2O1` (some centres not stated), for which, in series [1], the half-inhibitory concentration (IC50) stood at 49.7 µM.

On to `CNC1=N[C@@H]2[C@@H](O)[C@H](O[C@@H]3O[C@H](CO)[C@@H](O[C@@H]4O[C@H](CO)[C@@H](O)[C@@H](O)[C@H]4NC(=O)CCSSCCNC(=O)C(CCCCNC(=O)CCCCC4SCC5NC(=O)NC54)NC(=O)c4ccc(N=[NH+][NH-])cc4)[C@@H](O)[C@H]3NC(C)=O)[C@@H](CO)[C@@H]2O1` (some centres not stated), for which the outcome in series [4], in series [5] and in series [6] was Active. This molecule showed an IC50 in series [1] of 7.7 µM.

As to `CC(=O)N[C@H]1[C@H](O[C@H]2[C@@H](O)[C@@H](NC(=O)CCSSCCNC(=O)C(CCCCNC(=O)CCCCC3SCC4NC(=O)NC43)NC(=O)c3ccc(N=[NH+][NH-])cc3)[C@H](O[C@H]3[C@H](O)[C@H]4N=C(N(C)C)O[C@H]4[C@@H]3CO)O[C@@H]2CO)O[C@H](CO)[C@@H](O)[C@H]1O` (some centres not stated), the IC50 in series [1] worked out at 125 µM.

Molecule `CNC1=N[C@@H]2[C@@H](O)[C@H](O[C@@H]3O[C@H](CO)[C@@H](O[C@@H]4O[C@H](CO)[C@@H](O)[C@@H](O)[C@H]4N)[C@@H](O)[C@H]3NC(C)=O)[C@@H](CO)[C@@H]2O1` returned an IC50 in series [1] of 82.9 µM.

In series [1], `CNC1=N[C@@H]2[C@@H](O)[C@H](O[C@@H]3O[C@H](CO)[C@@H](O[C@@H]4O[C@H](CO)[C@@H](O)[C@@H](O)[C@H]4NC(=O)CCSSCCNC(=O)CCCCC4SCC5NC(=O)NC54)[C@@H](O)[C@H]3NC(C)=O)[C@@H](CO)[C@@H]2O1` (some centres not stated) displayed an IC50 of 7.9 µM.

Take `CNC1=N[C@@H]2[C@@H](O)[C@H](O[C@@H]3O[C@H](CO)[C@@H](O[C@@H]4O[C@H](CO)[C@@H](O)[C@@H](O)[C@H]4NC(C)=O)[C@@H](O)[C@H]3NC(C)=O)[C@@H](CO)[C@@H]2O1` [DEMETHYLALLOSAMIDIN]: the IC50 in series [1] is 10.3 µM.

`CC(=O)N[C@H]1[C@H](O[C@H]2[C@@H](O)[C@@H](N)[C@H](O[C@H]3[C@H](O)[C@H]4N=C(N(C)C)O[C@H]4[C@@H]3CO)O[C@@H]2CO)O[C@H](CO)[C@@H](O)[C@H]1O` displayed an IC50 in series [1] of 69.3 µM.
